In ChEMBL document CHEMBL1147288, “Isolation of flavonoids and a chalcone from Helichrysum odoratissimum and synthesis of helichrysetin” (1989):
Values after ≈ are worked out from the molar mass of the structure shown.

Assays:
Enterobacter cloacae = assay: Antibacterial activity against Enterobacter cloacae ATCC 23355 after 24 to 48 hrs at 37 degC by liquid dilution method; assay type: functional
Escherichia coli = assay: Antibacterial activity against Escherichia coli ATCC 25922 after 24 to 48 hrs at 37 degC by liquid dilution method; assay type: functional
Streptococcus pyogenes = assay: Antibacterial activity against Streptococcus pyogenes ATCC 19651 after 24 to 48 hrs at 37 degC by liquid dilution method; assay type: functional
Salmonella typhimurium = assay: Antibacterial activity against Salmonella Typhimurium ATCC 14028 after 24 to 48 hrs at 37 degC by liquid dilution method; assay type: functional, Salmonella enterica subsp. enterica serovar Typhimurium; details: Salmonella enterica
Serratia marcescens = assay: Antibacterial activity against Serratia marcescens ATCC 8100 after 24 to 48 hrs at 37 degC by liquid dilution method; assay type: functional
Klebsiella pneumoniae = assay: Antibacterial activity against Klebsiella pneumoniae ATCC 13883 after 24 to 48 hrs at 37 degC by liquid dilution method; assay type: functional
Bacillus subtilis = assay: Antibacterial activity against Bacillus subtilis ATCC 6633 after 24 to 48 hrs at 37 degC by liquid dilution method; assay type: functional
Pseudomonas aeruginosa = assay: Antibacterial activity against Pseudomonas aeruginosa ATCC 27853 after 24 to 48 hrs at 37 degC by liquid dilution method; assay type: functional
Staphylococcus aureus = assay: Antibacterial activity against Staphylococcus aureus […] after 24 to 48 hrs at 37 degC by liquid dilution method; assay type: functional
Shigella dysenteriae = assay: Antibacterial activity against Shigella dysenteriae after 24 to 48 hrs at 37 degC by liquid dilution method; assay type: functional
[1] = system: Mycolicibacterium smegmatis; assay: Antibacterial activity against Mycobacterium smegmatis ATCC 607 after 24 to 48 hrs at 37 degC by liquid dilution method; assay type: functional
Proteus vulgaris = assay: Antibacterial activity against Proteus vulgaris […] after 24 to 48 hrs at 37 degC by liquid dilution method; assay type: functional
Ralstonia solanacearum = assay: Antibacterial activity against Pseudomonas solanacearum after 24 to 48 hrs at 37 degC by liquid dilution method; assay type: functional
Microsporum canis = assay: Antifungal activity against Microsporum canis after 7 days at 27 degC by liquid dilution method; assay type: functional
Paecilomyces = assay: Antifungal activity against Paecilomyces after 7 days at 27 degC by liquid dilution method; assay type: functional
Candida albicans = assay: Antifungal activity against Candida albicans CBS 562 after 24 to 48 hrs at 37 degC by liquid dilution method; assay type: functional
Epidermophyton floccosum = assay: Antifungal activity against Epidermophyton floccosum after 7 days at 27 degC by liquid dilution method; assay type: functional
Aspergillus flavus = assay: Antifungal activity against Aspergillus flavus after 7 days at 27 degC by liquid dilution method; assay type: functional

For `CN(C)[C@@H]1C(O)=C(C(N)=O)C(=O)[C@@]2(O)C(O)=C3C(=O)c4c(O)cccc4[C@@](C)(O)[C@H]3C[C@@H]12.Cl` [TETRACYCLINE HYDROCHLORIDE], the MIC (Enterobacter cloacae) was 12.5 µg/mL, the MIC (Escherichia coli) was 6.25 µg/mL and the MIC (Streptococcus pyogenes) was 6.25 µg/mL. The MIC (Salmonella typhimurium) was 12.5 µg/mL, the MIC (Serratia marcescens) was 25 µg/mL and the MIC (Klebsiella pneumoniae) was 12.5 µg/mL. For the same compound, the MIC (Bacillus subtilis) was 3.12 µg/mL, the MIC (Pseudomonas aeruginosa) was 100 µg/mL and the MIC (Staphylococcus aureus) was 100 µg/mL. The MIC (Shigella dysenteriae) was 0.78 µg/mL, the MIC [1] was 100 µg/mL and the MIC (Proteus vulgaris) was 25 µg/mL. The MIC (Ralstonia solanacearum) was 100 µg/mL.
`COc1c(-c2ccc(O)c(O)c2)oc2cc(O)cc(O)c2c1=O` [3-O-METHYLQUERCETIN] was tested, and the MIC (Enterobacter cloacae) was 100 µg/mL (≈ 316 µM), the MIC (Escherichia coli) was 100 µg/mL (≈ 316 µM) and the MIC (Microsporum canis; 168 h) was 100 µg/mL (≈ 316 µM). For the same compound, the MIC (Streptococcus pyogenes) was 100 µg/mL (≈ 316 µM), the MIC (Paecilomyces; 168 h) was 100 µg/mL (≈ 316 µM) and the MIC (Salmonella typhimurium) was 50 µg/mL (≈ 158 µM). It also gave an MIC (Candida albicans) of 12.5 µg/mL (≈ 39.5 µM), an MIC (Serratia marcescens) of 100 µg/mL (≈ 316 µM) and an MIC (Klebsiella pneumoniae) of 100 µg/mL (≈ 316 µM). It also gave an MIC (Bacillus subtilis) of 50 µg/mL (≈ 158 µM), an MIC (Epidermophyton floccosum; 168 h) of 100 µg/mL (≈ 316 µM) and an MIC (Pseudomonas aeruginosa) of 100 µg/mL (≈ 316 µM). The MIC (Staphylococcus aureus) was 6.25 µg/mL (≈ 19.8 µM), the MIC (Shigella dysenteriae) was 100 µg/mL (≈ 316 µM) and the MIC [1] was 100 µg/mL (≈ 316 µM). It also gave an MIC (Aspergillus flavus; 168 h) of 100 µg/mL (≈ 316 µM), an MIC (Proteus vulgaris) of 100 µg/mL (≈ 316 µM) and an MIC (Ralstonia solanacearum) of 100 µg/mL (≈ 316 µM).
For NYSTATIN, the MIC (Microsporum canis) was 50 µg/mL, the MIC (Paecilomyces) was 50 µg/mL and the MIC (Candida albicans) was 0.78 µg/mL. The MIC (Epidermophyton floccosum) was 100 µg/mL and the MIC (Aspergillus flavus) was 12.5 µg/mL.
